Patent publication US20020155192A1, “Yeast transport isoforms” (priority 2000, published 2002)
Read-outs that look alike come from different tables or passages of the source.

Columns and labels:
Type in all cases: biochemical
Odc1p [1] = target: T1, Odc1p (Saccharomyces cerevisiae, UniProt Q03028); experiment: Dependence on internal substrate of [14C]oxoglutarate uptake into proteoliposomes reconstituted with recombinant Odc1p; details: for [14C]oxoglutarate transport: proteoliposomes preloaded with 20 mM internal substrate, 0.6 mM [14C]oxoglutarate, 45 seconds
T1 construct: made in house; host or cells: S. cerevisiae odc1Δodc2Δ (YPH499 background) carrying pYES2-based pODC1; purified from mitochondria on Ni-NTA agarose
T1 sequence (Q03028 1-310): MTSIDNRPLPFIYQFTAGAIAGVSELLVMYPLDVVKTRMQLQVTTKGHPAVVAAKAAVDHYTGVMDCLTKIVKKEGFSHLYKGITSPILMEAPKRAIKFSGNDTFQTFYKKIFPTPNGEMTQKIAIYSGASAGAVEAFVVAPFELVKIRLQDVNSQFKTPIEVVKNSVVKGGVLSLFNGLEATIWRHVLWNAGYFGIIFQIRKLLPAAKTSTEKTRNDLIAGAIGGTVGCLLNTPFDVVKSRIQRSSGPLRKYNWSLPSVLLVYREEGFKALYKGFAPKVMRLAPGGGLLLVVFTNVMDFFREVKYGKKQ
Experimental: (§1) Reconstitution of the ODC proteins into liposomes—Purified ODC proteins were reconstituted by cyclic removal of the detergent with a hydrophobic column (13). The composition of the initial mixture used for reconstitution was: 200 μl of purified isoform (0.3-0.4 μg of protein), 70 μl of 10% Triton X-114, 100 μl of 10% phospholipids in the form of sonicated liposomes, 20 mM oxoglutarate (except where otherwise indicated), 10 mM Pipes (pH 7.0), 0.7 mg of cardiolipin (Sigma) and water to a final volume of 700 μl. These components were mixed thoroughly, and the mixture was recycled 13 times through an Amberlite column (Supelco) (3.0 cm×0.5 cm) preequilibrated with a buffer containing 10 mM Pipes (pH 7.0) and with the substrate at the same concentration as in the starting mixture. All operations were performed at 4° C., except the passages through Amberlite, which were carried out at room temperature.
(§2) External substrate was removed from proteoliposomes on a Sephadex G-75 column preequilibrated with buffer F (50 mM NaCl and 10 mM PIPES, pH 7.0). Transport at 25° C. was started by adding [^14C]oxoglutarate (unless otherwise indicated) to the proteoliposomes, and terminated by addition of 30 mM pyridoxal 5′-phosphate and 10 mM bathophenanthroline (the “inhibitor-stop” method (13)). In controls, inhibitors were added with the labelled substrate. The external radioactivity was removed on Sephadex G-75 and the internal radioactivity was measured. […] The initial rate of transport was calculated in mmol/min per g protein from the time course of isotope equilibration (13). Various other transport activities were also assayed by the inhibitor-stop method. For efflux measurements, the internal substrate pool of the proteoliposomes was made radioactive by carrier-mediated exchange equilibration (13) with 0.1 mM [^14C]oxoglutarate added at high specific radioactivity. After 60 min, the residual external radioactivity was removed by passing the proteoliposomes again through a column of Sephadex G-75. Efflux was started by adding unlabelled external substrate or buffer F alone and terminated by adding the inhibitors indicated above.
(§3) The substrate specificity of purified Odc1p and Odc2p was investigated further by measuring the uptake of [^14C]oxoglutarate into proteoliposomes which had been preloaded with various substrates.
(§4) Proteoliposomes were preloaded internally with various substrates (concentration, 20 mM). Transport was started by adding [^14C]oxoglutarate (final concentration, 0.6 mM) and terminated after 45 seconds.

Odc1p [2] = target: T1, Odc1p; experiment: Kinetic constants (Km, Vmax, Ki) of recombinant purified Odc1p in proteoliposomes; details: for Ki: Lineweaver-Burk plots, 0.1-2.0 mM [14C]oxoglutarate, means ±S.D., read-out: Ki (competition with [14C]oxoglutarate uptake)
Experimental: as §2
(§5) The kinetic constants of the recombinant purified Odc1p and Odc2p were determined by measuring the initial transport rate at various external [^14C]oxoglutarate concentrations, in the presence of a constant saturating internal concentration of 20 mM oxoglutarate.
(§6) The values were calculated from Lineweaver-Burk plots of the rate of [^14C]oxoglutarate versus substrate concentrations. The competing substrates at appropriate constant concentrations were added together with 0.1-2.0 mM [^14C]oxoglutarate to proteoliposomes containing 20 mM oxoglutarate and reconstituted with recombinant Odc1p or Odc2p. The data represent the means ±S.D. of at least three different experiments. n.d., not determined.

Odc2p [3] = target: T2, Odc2p (Saccharomyces cerevisiae, UniProt Q99297); experiment: Kinetic constants (Km, Vmax, Ki) of recombinant purified Odc2p in proteoliposomes
T2 construct: made in house; host or cells: S. cerevisiae odc1Δodc2Δ (YPH499 background) carrying pYES2-based pODC2; purified from mitochondria on Ni-NTA agarose
T2 sequence (Q99297 1-307): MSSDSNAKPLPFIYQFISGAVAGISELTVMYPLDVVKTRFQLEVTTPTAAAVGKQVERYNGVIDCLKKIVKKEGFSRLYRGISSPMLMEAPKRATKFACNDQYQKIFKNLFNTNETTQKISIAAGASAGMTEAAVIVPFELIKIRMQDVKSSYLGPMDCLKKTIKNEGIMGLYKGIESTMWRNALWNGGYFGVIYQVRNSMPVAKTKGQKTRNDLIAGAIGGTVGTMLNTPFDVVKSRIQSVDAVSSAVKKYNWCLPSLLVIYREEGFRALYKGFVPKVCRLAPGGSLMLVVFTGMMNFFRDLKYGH
Experimental: as §2, §5, §6

Odc2p [4] = target: T2, Odc2p; experiment: Dependence on internal substrate of [14C]oxoglutarate uptake into proteoliposomes reconstituted with recombinant Odc2p
Experimental: as §1, §2, §3, §4

Odc1p [5] = target: T1, Odc1p; experiment: Effect of inhibitors and external compounds on the [14C]oxoglutarate/oxoglutarate exchange by proteoliposomes reconstituted with Odc1p; details: Odc1p; for effect of non-radioactive potential substrates on the rate of oxoglutarate uptake (in words): added with 0.4 mM [14C]oxoglutarate, 4.0 mM in FIG. 5, partly data not shown
Experimental: FIG. 5. Effect of dicarboxylates and 2-oxodicarboxylates with different carbon chain length on the rate of [^14C]oxoglutarate uptake into proteoliposomes reconstituted with recombinant Odc1p. Proteoliposomes were preloaded with 20 mM oxoglutarate and reconstituted with recombinant Odc1p. Transport was initiated by the addition of 0.4 mM [^14C]oxoglutarate and terminated after 45 seconds. Oxalate, malonate, succinate, glutarate, adipate, pimelate, suberate (▪) and the corresponding 2-oxoacids (●) were added simultaneously with [1^4C]oxoglutarate at 4.0 mM concentration.
as §1, §2
(§7) In addition, the ability of non-radioactive potential substrates to inhibit the oxoglutarate/oxoglutarate exchange was examined.
Proteoliposomes were preloaded internally with 20 mM oxoglutarate and transport was initiated by the addition of 0.4 mM [^14C]oxoglutarate.

Odc2p [6] = target: T2, Odc2p; experiment: Effect of inhibitors and external compounds on the [14C]oxoglutarate/oxoglutarate exchange by proteoliposomes reconstituted with Odc2p; details: Odc2p, data not shown
Experimental: as §1, §2, §7
Proteoliposomes were preloaded internally with 20 mM oxoglutarate and transport was initiated by the addition of 0.4 mM [^14C]oxoglutarate. The incubation time was 45 seconds. Thiol reagents and α-cyanocinnamate were added 2 min before the labelled substrate; the other inhibitors and external substrates were added together with [^14C]oxoglutarate. The final concentration of the inhibitors was 4 mM, except for mercurials (10 μM), carboxyatractyloside (0.1 mM), N-ethylmaleimide and α-cyanocinnamate (2 mM).

Odc1p [7] = target: T1, Odc1p; experiment: Homoexchange of other substrates in proteoliposomes reconstituted with Odc1p; details: internal concentration 10 mM, external concentration 1 mM
Experimental: as §2
(§8) In order to obtain further information about the mechanism of transport catalyzed by Odc1p and Odc2p, the efflux of [^14C]oxoglutarate from pre-labelled active proteoliposomes was investigated as it provides a more convenient assay for unidirectional transport (13).

Odc2p [8] = target: T2, Odc2p; experiment: Homoexchange of other substrates in proteoliposomes reconstituted with Odc2p; details: internal concentration 10 mM, external concentration 1 mM
Experimental: as §2, §8

[9] = Odc1p, proteoliposomes preloaded with various substrates
[10] = read-out: transport affinity (Km) for the oxoglutarate/oxoglutarate exchange
[11] = Odc2p, proteoliposomes preloaded with various substrates
[12] = Odc1p, 20 mM internal oxoglutarate

| Molecule | [14C]oxoglutarate uptake with the internal substrate (in words) (Odc1p [1]; [9]) | [14C]oxoglutarate uptake with the internal substrate (in words) (Odc2p [4]; [11]) | homoexchange catalyzed by the proteoliposomes (in words) (Odc1p [7]) | homoexchange catalyzed by the proteoliposomes (in words) (Odc2p [8]) | other results |
| --- | --- | --- | --- | --- | --- |
| O=C(O)CCC(=O)C(=O)O [2-Oxoglutarate] | taken up efficiently |  |  |  | [14C]oxoglutarate transport (Odc1p [1]; Odc1p): 112.5 mmol/min per g protein; specific activity (Vmax) for the oxoglutarate/oxoglutarate exchange (Odc1p [2]; Odc1p, 25° C., 20 mM internal oxoglutarate, 24 experiments): 252±53 mmol/min per g protein; Km (Odc1p [2]; [10]): 520 ± 80 µM; specific activity (Vmax) for the oxoglutarate/oxoglutarate exchange (Odc2p [3]; Odc2p, 25° C., 20 mM internal oxoglutarate, 16 experiments): 73±17 mmol/min per g protein; Km (Odc2p [3]; [10]): 470 ± 70 µM |
| CC(C)CC(=O)C(=O)O [2-oxoisocaproate] | no exchange | no exchange | did not catalyze homoexchanges | did not catalyze homoexchanges | effect of oxomonocarboxylates on the rate of uptake of 0.4 mM oxoglutarate (in words) (Odc1p [5]; 8 mM, 20 times greater than the substrate, data not shown): did not influence; effect of oxomonocarboxylates on the rate of uptake of 0.4 mM oxoglutarate (in words) (Odc2p [6]; 8 mM, 20 times greater than the substrate): did not influence |
| Nc1ncnc2c1ncn2[C@@H]1O[C@H](COP(=O)(O)OP(=O)(O)O)[C@@H](O)[C@H]1O [ADP] | no exchange | no exchange | did not catalyze homoexchanges | did not catalyze homoexchanges |  |
| O=C(O)CC(=O)C(=O)O [Oxaloacetate] |  |  |  |  | Ki (Odc1p [2]; [12]): > 15 mM; Ki (Odc2p [3]; Odc2p, Lineweaver-Burk plots, 0.1-2.0 mM [14C]oxoglutarate, 20 mM internal oxoglutarate, means ±S.D., read-out: Ki (competition with [14C]oxoglutarate uptake)): > 15 mM |
| O=C(O)CCC(=O)O [Succinate] | much lower activity | much lower activity |  |  | [14C]oxoglutarate transport (Odc1p [1]; Odc1p): 19.1 mmol/min per g protein; [14C]oxoglutarate transport (Odc2p [4]; Odc2p, proteoliposomes preloaded with 20 mM internal substrate, 0.6 mM [14C]oxoglutarate, 45 seconds): 4.3 mmol/min per g protein; effect of non-radioactive potential substrates on the rate of oxoglutarate uptake (in words) (Odc1p [5]): virtually no effect; effect of non-radioactive potential substrates on the rate of oxoglutarate uptake (in words) (Odc2p [6]): virtually no effect; Ki (Odc1p [2]; [12]): > 15 mM |
| C[N+](C)(C)CC(O)CC(=O)[O-] (centres unmarked) [carnitine] | no exchange | no exchange | did not catalyze homoexchanges | did not catalyze homoexchanges |  |
| N[C@@H](CCC(=O)O)C(=O)O [glutamate] | no exchange | no exchange | did not catalyze homoexchanges | did not catalyze homoexchanges |  |
| NC(=O)CC[C@H](N)C(=O)O [glutamine] | no exchange | no exchange | did not catalyze homoexchanges | did not catalyze homoexchanges | effect of non-radioactive potential substrates on the rate of oxoglutarate uptake (in words) (Odc1p [5]): no effect; effect of non-radioactive potential substrates on the rate of oxoglutarate uptake (in words) (Odc2p [6]): no effect |
| NCCC[C@H](N)C(=O)O [ornithine] |  |  | did not catalyze homoexchanges | did not catalyze homoexchanges |  |
| O=C(O)C(=O)O [oxalate] | no exchange | no exchange |  |  | effect of non-radioactive potential substrates on the rate of oxoglutarate uptake (in words) (Odc1p [5]): virtually no effect; effect of non-radioactive potential substrates on the rate of oxoglutarate uptake (in words) (Odc2p [6]): virtually no effect |
| O=S(=O)(O)O [sulfate] |  |  | did not catalyze homoexchanges | did not catalyze homoexchanges | [14C]oxoglutarate uptake with the internal substrate (in words) (Odc1p [1]): no exchange; [14C]oxoglutarate uptake with the internal substrate (in words) (Odc2p [4]): no exchange |
| phosphate | no exchange | no exchange | did not catalyze homoexchanges | did not catalyze homoexchanges |  |
